Test: Displacement of [125I]TZDM from beta amyloid 42 fibril

Row | Ki [nM] | SMILES
1 | 0.76 | CN(C)c1ccc(N2Cc3cc(Cl)ccc3C2=O)cc1
2 | 0.44 | COc1ccc(N2C(=O)c3ccccc3C2=O)cc1N(C)C
3 | 0.9 | COc1cc(N2Cc3ccccc3C2=O)ccc1N(C)C
4 | 0.5 | CN(C)c1ccc(N2Cc3ccc(Cl)cc3C2=O)cc1
5 | 0.7 | CNc1ccc(-c2nc3ccc(O)cc3s2)cc1 [PITTSBURGH COMPOUND B UNLABELLED]
6 | 0.65 | COc1ccc(N2Cc3ccccc3C2=O)cc1N(C)C
7 | 0.42 | COc1cc(N2C(=O)c3ccc(Br)cc3C2=O)ccc1N(C)C
8 | 0.5 | Cc1ccc2c(c1)C(=O)N(c1ccc(N(C)C)cc1)C2=O
9 | 0.93 | CN(C)c1ccc(N2Cc3ccc(F)cc3C2=O)cc1
10 | 0.7 | CN(C)c1ccc(N2C(=O)c3ccc(N(C)C)cc3C2=O)cc1
11 | 0.49 | CN(C)c1ccc(N2Cc3cc(F)ccc3C2=O)cc1
12 | 0.58 | CN(C)c1ccc(N2Cc3ccccc3C2=O)cc1
13 | 0.76 | Cc1ccc2c(c1)C(=O)N(c1ccc(N(C)C)cc1)C2
14 | 0.56 | CN(C)c1ccc(N2C(=O)c3ccc(F)cc3C2=O)cc1
15 | 0.81 | CN(C)c1ccc(N2Cc3cc(Br)ccc3C2=O)cc1
16 | 0.52 | CC(C(=O)O)c1ccc(N2Cc3ccccc3C2=O)cc1 (stereo not given) [INDOPROFEN]
17 | 0.57 | CN(C)c1cccc(N2Cc3ccccc3C2=O)c1
18 | 0.46 | COc1cc(N2Cc3ccc(C)cc3C2=O)ccc1N(C)C
19 | 0.46 | CN(C)c1cccc(N2C(=O)c3ccccc3C2=O)c1
20 | 0.71 | COc1ccc2c(c1)C(=O)N(c1ccc(N(C)C)cc1)C2=O
21 | 0.7 | COc1cc(N2C(=O)c3ccc(Cl)cc3C2=O)ccc1N(C)C
22 | 0.69 | CN(C)c1ccc(N2C(=O)c3ccccc3C2=O)cc1
23 | 0.78 | COc1cc(N2C(=O)c3ccc(F)cc3C2=O)ccc1N(C)C
24 | 0.66 | COc1cc(N2C(=O)c3ccccc3C2=O)ccc1N(C)C
25 | 0.94 | COc1ccc2c(c1)CN(c1ccc(N(C)C)cc1)C2=O

— ChEMBL document CHEMBL1141495, “Isoindol-1,3-dione and isoindol-1-one derivatives with high binding affinity to beta-amyloid fibrils” (Bioorg Med Chem Lett, 2008)
